We go through three compounds from patent US20130251783A1, “LIPOSOMES CONTAINING PERMEATION ENHANCERS FOR ORAL DRUG DELIVERY” (Universitat Heidelberg, priority 2011, published 2013).

Structures are written as SMILES.

The subject of data set [1] is Caco-2 cells. The experiment in a line: Alamar Blue cytotoxicity assay. Type of data set: cell-based. The procedure: (§1) Caco-2 cells were grown in T-75 flasks in Dulbecco's modified Eagle's medium (DMEM) supplemented with 10% FBS, 1% non-essential amino acids, 1% pyruvate, 1% L-glutamine, 100 U/ml penicillin and 100 μg/ml streptomycin at 37° C. in an atmosphere with 5% CO2 and in equilibrium with distilled water. The medium was changed every other day, and the cells were subcultured at 80% confluency. Cells were used in the experiments described below.
(§2) Cytotoxicity of liposomes and bio-enhancer solutions was investigated using the Alamar Blue® assay (AbD Serotec, Oxford, UK) and by determination of the release of lactate dehydrogenase (LDH) with a test kit (Sigma-Aldrich, Taufkirchen, Germany). […] The formed NADH in turn reduces a tetrazolium salt to a red-coloured product which can be determined photometrically. […]
In terms of the Alamar Blue® assay, groups of eight wells were incubated with the solutions of the bio-enhancers in five concentrations (1 μM, 10 μM, 100 μM, 1 mM and 10 mM) and the liposomal formulations in three concentrations (0.5 mM, 5 mM and 50 mM total lipid) in KRB for 2, 4, and 8 h at 37° C. […] After 4 h at 37° C., the colour change of the dye was determined at an excitation wavelength of 530 nm and an emission wavelength of 590 nm in a Fluoroskan Ascent® plate reader. […] Cell viability was expressed as follows: […]
For orientation: The colour change of resazurin is a common sign of viable cells or microbes.

Data set [2] concerns Caco-2 cells. The experiment in a line: LDH release cytotoxicity assay. The data set is classed as cell-based. The following applies: free solution, all concentrations (likely inhibition of the enzymatic reaction). As to the method:
as §1, §2
For the LDH release assay, cells were treated similar as described for the Alamar Blue® cytotoxicity assay with little changes. […] The reaction was stopped by the addition of 10 μl 1N HCl and subsequently, the colour change of the dye was measured by a Tecan microplate absorbance reader (Sunrise, Tecan, Grodig, Austria) at a wavelength of 490 nm and a reference wavelength of 700 nm. To eliminate the influence of the liposomes and the bio-enhancers on the absorbance, a blank was measured of the formulations with a concentration equal to the final assay concentration. […]
For orientation: Release of lactate dehydrogenase indicates damage to the cell membrane.

For data set [3], the system named is rats. The following applies: cited from earlier work.
In another data set the test system is rabbits. The following applies: cited from earlier work.
Data set [4] has as its system rats. The following applies: rats fed daily around 37.7 mg/kg for two years; cited from earlier work.
The test system of data set [5] is Caco-2 cells. The following applies: cited from earlier work.

What is called LD50 is the dose expected to kill half of the subjects tested.

`CCCCCCCCCCCCCCCC[n+]1ccccc1` [CpCl, cetylpyridinium chloride]: the “Toxicity compared among the investigated enhancers” value with Caco-2 cells [1] (Caco-2 cells) is “most toxic”. In addition, the “Cytotoxicity (cell viability)” value in the data set on Caco-2 cells [1] (free enhancer in KRB, concentration 1 mM) is “strong cytotoxicity”. For the same compound, the “LDH release compared to incubation with KRB” value in the data set with Caco-2 cells [2] is listed as “lower as the release after incubation with KRB”. For the same compound, the LD50 in the data set on rats [3] is recorded as 200 mg/kg; with rabbits, 400 mg/kg.

`CCCCCCCCCCCCCCCCCCN` [SA, stearylamine]: the Side effects entry in the data set on rats [4] is given as “without causing any side effects”.

Take `C[C@H](CCC(=O)N(C)CC(=O)O)[C@H]1CC[C@H]2[C@@H]3[C@H](O)C[C@@H]4C[C@H](O)CC[C@]4(C)[C@H]3C[C@H](O)[C@]12C` [CS, cholylsarcosine]: the “Cytotoxicity in WST-1 transformation assay” value with Caco-2 cells [5] was “no cytotoxicity”.
